Results reported in patent US8241648B2, “Amphiphilic or lipophilic polar functionalized fullerenes and their uses” (Luna Innovations Incorporated, priority 2007, dated 2012).

Assay: Radical addition of an unstable nitrogen:peroxide radical (immobilized activated amine, butanone peroxide, xylene), measured by HPLC
Details: control anti-oxidant in xylene, same conditions
Procedure: An unstable nitrogen radical was made by adding butanone peroxide to nitrogen immobilized on a solid substrate in the presence of either C70, C60 or, as a control, the anti-oxidant Vitamin E in xylene. Radical addition of the substrate to the immobilized, activated amine is measured by HPLC. […] 74% of the C70 was bound to the nitrogen while only 27% of the C60 was bound.

Vitamin E
reaction with the unstable nitrogen radical: did not react at all
